Measurements: patent publication US20260015358A1, “BICYCLIC DERIVATIVES, COMPOSITIONS AND USES THEREOF” (Danatlas Pharmaceuticals Co., Ltd., priority 2023, published 2026)

What follows are compounds tested against WRN [UniPro: Q14191 (WRN_HUMAN), N500-C946] (Homo sapiens (Human), UniProt Q14191) (assay: WRN unwinding assay (FORKF DNA, fluorescence)). Details: Table 14.
Assay type: biochemical
Protocol: WRN unwinding assay was initiated to evaluate potential inhibitory effect of compounds for WEN helicase activity. WRN [UniPro: Q14191 (WRN_HUMAN), N500-C946] was expressed and purified in insect system and stored at −80° C. in aliquots. […] Compounds dissolved in DMSO (Sigma, D8418) were plated into a 96-well intermediate plate (BioFil, VWP-032-096) for 3-fold serial titration for 10 points using DMSO, and well-to-well transfer the titrated compounds into another 96-well intermediate plate including assay buffer in advance. Shake the 96-well intermediate plate at 600 rpm for 10 min. to fully mix. Specifically, a 3× working mixture of WRN was diluted to a concentration of 60 nM in assay buffer. […] After centrifuging at 1000 rpm and shaking at 500 rpm, the assay plate was pre-incubated for 30 min. Then, […] 3×FORKF DNA and ATP working mixture was dispensed into assay plate. Plate was sealed, centrifuged and incubated for an additional 40 min. at 25° C. […] Each concentration of compound was tested in duplicates in the assay plate. Average fluorescence signal of high control (Wells with 1% DMSO) was calculated as High Control (HC). Average fluorescence signal of low control (Wells with no WRN protein) was calculated as Low control (LC).
IC50 values were determined by fitting the data to the standard 4 parameters with Hill Slope using GraphPad Prism software.

Sequence of WRN [UniPro: Q14191 (WRN_HUMAN), N500-C946] (Q14191 500-946): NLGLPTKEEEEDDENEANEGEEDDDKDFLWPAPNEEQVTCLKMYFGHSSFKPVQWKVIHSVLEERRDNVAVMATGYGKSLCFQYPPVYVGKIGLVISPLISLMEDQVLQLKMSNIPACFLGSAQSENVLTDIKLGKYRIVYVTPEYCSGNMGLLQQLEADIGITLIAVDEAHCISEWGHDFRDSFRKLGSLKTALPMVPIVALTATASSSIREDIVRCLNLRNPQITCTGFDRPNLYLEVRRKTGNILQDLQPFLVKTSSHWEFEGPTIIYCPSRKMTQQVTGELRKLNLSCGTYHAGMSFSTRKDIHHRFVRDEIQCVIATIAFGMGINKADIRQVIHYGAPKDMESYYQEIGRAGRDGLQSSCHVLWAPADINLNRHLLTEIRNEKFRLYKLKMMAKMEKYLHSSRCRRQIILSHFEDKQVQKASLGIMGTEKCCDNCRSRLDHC

First: CCc1c(N2CCN(C(=O)CNC(=O)c3ccccc3F)CC2)c(=O)n2nc(C3=CCOCC3)nc2n1CC(=O)Nc1nnc(C(F)(F)F)s1 [Example 155, N-(2-(4-(2-(3,6-Dihydro-2H-pyran-4-yl)-5-ethyl-7-oxo-4-(2-oxo-2-((5-(trifluoromethyl)-1,3,4-thiadiazol-2-yl)amino)ethyl)-4,7-dihydro-[1,2,4]triazolo[1,5-a]pyrimidin-6-yl)piperazin-1-yl)-2-oxoethyl)-2-fluorobenzamide]
Second: CCc1c(N2CCN(C(=O)CNC(=O)c3ccccc3F)CC2)c(=O)n2nc(C3=CCOCC3)nc2n1CC(=O)Nc1ncc(C(F)(F)F)s1 [Example 158, N-(2-(4-(2-(3,6-Dihydro-2H-pyran-4-yl)-5-ethyl-7-oxo-4-(2-oxo-2-((5-(trifluoromethyl)thiazol-2-yl)amino)ethyl)-4,7-dihydro-[1,2,4]triazolo[1,5-a]pyrimidin-6-yl)piperazin-1-yl)-2-oxoethyl)-2-fluorobenzamide]
The IC50 of the first is higher: greater than 1000 nM for the first, 100 to 1000 nM for the second.

First: CCc1c(N2CCN(C(=O)CNC(=O)c3ccccc3F)CC2)c(=O)n2nc(C3=CCOCC3)nc2n1CC(=O)Nc1nnc(C2CC2)s1 [Example 156, N-(2-(4-(4-(2-((5-Cyclopropyl-1,3,4-thiadiazol-2-yl)amino)-2-oxoethyl)-2-(3,6-dihydro-2H-pyran-4-yl)-5-ethyl-7-oxo-4,7-dihydro-[1,2,4]triazolo[1,5-a]pyrimidin-6-yl)piperazin-1-yl)-2-oxoethyl)-2-fluorobenzamide]
Second: CCc1c(N2CCN(C(=O)CNC(=O)c3ccccc3F)CC2)c(=O)n2nc(C3=CCOCC3)nc2n1CC(=O)Nc1nc(C)cs1 [Example 159, N-(2-(4-(2-(3,6-Dihydro-2H-pyran-4-yl)-5-ethyl-4-(2-((4-methylthiazol-2-yl)amino)-2-oxoethyl)-7-oxo-4,7-dihydro-[1,2,4]triazolo[1,5-a]pyrimidin-6-yl)piperazin-1-yl)-2-oxoethyl)-2-fluorobenzamide]
The IC50 of the first is higher: greater than 1000 nM for the first, 100 to 1000 nM for the second. The second is the more potent here.

First: CCc1c(N2CCN(C(=O)CNC(=O)c3ccccc3F)CC2)c(=O)n2nc(C3=CCOCC3)nc2n1CC(=O)Nc1cc(C)no1 [Example 160, N-(2-(4-(2-(3,6-Dihydro-2H-pyran-4-yl)-5-ethyl-4-(2-((3-methylisoxazol-5-yl)amino)-2-oxoethyl)-7-oxo-4,7-dihydro-[1,2,4]triazolo[1,5-a]pyrimidin-6-yl)piperazin-1-yl)-2-oxoethyl)-2-fluorobenzamide]
Second: CCc1c(N2CCN(C(=O)CNC(=O)c3ccc(Cl)cc3)CC2)c(=O)n2nc(C3=CCOCC3)nc2n1CC(=O)Nc1ccc(C(F)(F)F)cc1Cl [Example 164, 4-Chloro-N-(2-(4-(4-(2-((2-chloro-4-(trifluoromethyl)phenyl)amino)-2-oxoethyl)-2-(3,6-dihydro-2H-pyran-4-yl)-5-ethyl-7-oxo-4,7-dihydro-[1,2,4]triazolo[1,5-a]pyrimidin-6-yl)piperazin-1-yl)-2-oxoethyl)benzamide]
The IC50 of the first is higher: greater than 1000 nM for the first, 100 to 1000 nM for the second. The second is the more potent here.

CCc1c(N2CCN(C(=O)CNC(=O)OC(C)C)CC2)c(=O)n2nc(C3=CCOCC3)nc2n1CC(=O)Nc1ccc(C(F)(F)F)cc1Cl [Example 172, Isopropyl (2-(4-(4-(2-((2-chloro-4-(trifluoromethyl)phenyl)amino)-2-oxoethyl)-2-(3,6-dihydro-2H-pyran-4-yl)-5-ethyl-7-oxo-4,7-dihydro-[1,2,4]triazolo[1,5-a]pyrimidin-6-yl)piperazin-1-yl)-2-oxoethyl)carbamate] and CCc1c(N2CCN(C(=O)CNC(=O)c3cccc(Cl)c3)CC2)c(=O)n2nc(C3=CCOCC3)nc2n1CC(=O)Nc1ccc(C(F)(F)F)cc1Cl [Example 175, 3-Chloro-N-(2-(4-(4-(2-((2-chloro-4-(trifluoromethyl)phenyl)amino)-2-oxoethyl)-2-(3,6-dihydro-2H-pyran-4-yl)-5-ethyl-7-oxo-4,7-dihydro-[1,2,4]triazolo[1,5-a]pyrimidin-6-yl)piperazin-1-yl)-2-oxoethyl)benzamide] fall in the same range of IC50: 100 to 1000 nM for the first, 100 to 1000 nM for the second.
